Test system: HLA-A*11:01-restricted antigen-specific CD8+ T cells in patient's PBMC
Assay: Highly multiplexed combinatorial pMHC tetramer staining with mass cytometry (epitope mapping, frequency of antigen-specific CD8+ T cells)
[1] = Inactive Carrier (InA) CHB patients, patients with detected tetramer+ CD8+ T cells (frequency > 0.002%) / patients in the group, per epitope cluster
[2] = patients with detected epitope-specific CD8+ T cells / patients tested, acute resolved (R) group, Freq > 0.002%
[3] = patients with detected epitope-specific CD8+ T cells / patients tested, Immune Active (IA) group, Freq > 0.002%
[4] = patients with detected epitope-specific CD8+ T cells / patients tested, Immune Tolerant (IT) group, Freq > 0.002%
[5] = patients with detected epitope-specific CD8+ T cells / patients tested, Inactive Carrier (InA) group, Freq > 0.002%
[6] = Immune Tolerant (IT) patients, donors with tetramer+ CD8+ T cell frequency > 0.002% / donors tested
[7] = acute resolved (R) patients, donors with tetramer+ CD8+ T cell frequency > 0.002% / donors tested
[8] = Acute resolved (R) patients, patients with detected tetramer+ CD8+ T cells (frequency > 0.002%) / patients in the group, per epitope cluster
[9] = Immune Tolerant (IT) CHB patients, patients with detected tetramer+ CD8+ T cells (frequency > 0.002%) / patients in the group, per epitope cluster
[10] = Immune Active (IA) patients, donors with tetramer+ CD8+ T cell frequency > 0.002% / donors tested
[11] = Inactive Carrier (InA) patients, donors with tetramer+ CD8+ T cell frequency > 0.002% / donors tested
[12] = Immune Active (IA) CHB patients, patients with detected tetramer+ CD8+ T cells (frequency > 0.002%) / patients in the group, per epitope cluster

SSCLHQPAVRK
Hits (Freq > 0.002%) InA [1]: 1/12

KTFDSEYVK
Hits (Freq > 0.002%) R [2]: 1/12

SVQRNLPFER
Hits (Freq > 0.002%) IA [3]: 4/12 | Hits (Freq > 0.002%) IT [4]: 4/8 | Hits (Freq > 0.002%) InA [5]: 6/13 | Hits (Freq > 0.002%) R [2]: 3/12

STQVSWPK
Hits (Freq > 0.002%) IT [6]: 2/8 | Hits (Freq > 0.002%) R [7]: 1/12

PSFPHIHLK
Hits (Freq > 0.002%) R [8]: 1/12 | Hits (Freq > 0.002%) IT [9]: 1/8

KLVGINMSKK
Hits (Freq > 0.002%) InA [5]: 1/13

GTLPQEHIVLK
Hits (Freq > 0.002%) R [7]: 1/12

LSLGIHLNPNK
Hits (Freq > 0.002%) IA [10]: 3/12 | Hits (Freq > 0.002%) InA [11]: 1/13

SSARSQSER
Hits (Freq > 0.002%) InA [11]: 1/13

TTKRDLGMSK
Hits (Freq > 0.002%) IA [3]: 2/12 | Hits (Freq > 0.002%) IT [4]: 1/8

LVYRPTTGR
Hits (Freq > 0.002%) IA [10]: 1/12 | Hits (Freq > 0.002%) InA [11]: 1/13

KTAYSHLSTSK
Hits (Freq > 0.002%) R [8]: 7/12 | Hits (Freq > 0.002%) IT [9]: 8/8

IVQKIKMCFRK
Hits (Freq > 0.002%) IA [10]: 1/12 | Hits (Freq > 0.002%) IT [6]: 1/8 | Hits (Freq > 0.002%) R [7]: 2/12

SVLGPISGHVLK
Hits (Freq > 0.002%) InA [5]: 2/13

RVTGGVFLVDK
Hits (Freq > 0.002%) IA [10]: 1/12

TVRAFSRAYHHRINR
Hits (Freq > 0.002%) R [2]: 1/12

SVQPTFSVQR
Hits (Freq > 0.002%) IA [3]: 3/12 | Hits (Freq > 0.002%) IT [4]: 2/8 | Hits (Freq > 0.002%) InA [5]: 4/13 | Hits (Freq > 0.002%) R [2]: 1/12

VSAISSILSK
Hits (Freq > 0.002%) IA [12]: 1/12

KTFVDLMRR
Hits (Freq > 0.002%) IA [3]: 1/12

LVVDFSQFSR
Hits (Freq > 0.002%) IA [10]: 9/12 | Hits (Freq > 0.002%) IT [6]: 5/8 | Hits (Freq > 0.002%) InA [11]: 9/13 | Hits (Freq > 0.002%) R [7]: 9/12

YVSLLLLYK
Hits (Freq > 0.002%) IA [10]: 2/12 | Hits (Freq > 0.002%) IT [6]: 2/8 | Hits (Freq > 0.002%) InA [11]: 3/13 | Hits (Freq > 0.002%) R [7]: 1/12

HTLWKAGILYK
Hits (Freq > 0.002%) R [8]: 2/12 | Hits (Freq > 0.002%) IA [12]: 4/12 | Hits (Freq > 0.002%) IT [9]: 1/8 | Hits (Freq > 0.002%) InA [1]: 1/13

TSGSPIIDK
Hits (Freq > 0.002%) IT [4]: 1/8

LVFQTSER
Hits (Freq > 0.002%) R [8]: 1/12 | Hits (Freq > 0.002%) InA [1]: 1/13

VTGGVFLVDK
Hits (Freq > 0.002%) IA [10]: 1/12

TVMDIISRR
Hits (Freq > 0.002%) IT [4]: 2/8

TVNHYFQTR
Hits (Freq > 0.002%) IA [12]: 4/12 | Hits (Freq > 0.002%) IT [9]: 5/8 | Hits (Freq > 0.002%) InA [1]: 5/13

LSYLHFRK
Hits (Freq > 0.002%) R [8]: 2/12 | Hits (Freq > 0.002%) IA [12]: 4/12 | Hits (Freq > 0.002%) IT [9]: 3/8 | Hits (Freq > 0.002%) InA [1]: 1/13

CSCPTVQASK
Hits (Freq > 0.002%) InA [5]: 2/13

SVVRRAFPH
Hits (Freq > 0.002%) IA [10]: 3/12 | Hits (Freq > 0.002%) IT [6]: 1/8 | Hits (Freq > 0.002%) InA [11]: 2/13

KVFVLGGCRHK
Hits (Freq > 0.002%) IA [3]: 1/12 | Hits (Freq > 0.002%) IT [4]: 1/8 | Hits (Freq > 0.002%) R [2]: 2/12

GILPRSSVGPR
Hits (Freq > 0.002%) IA [12]: 1/12 | Hits (Freq > 0.002%) InA [1]: 3/13

STFHQALLDPR
Hits (Freq > 0.002%) IA [12]: 1/12

STLPETAVVRR
Hits (Freq > 0.002%) IA [10]: 4/12 | Hits (Freq > 0.002%) InA [11]: 7/13 | Hits (Freq > 0.002%) R [7]: 9/12

TSMFPSCCCTK
Hits (Freq > 0.002%) IA [12]: 2/12 | Hits (Freq > 0.002%) IT [9]: 1/8 | Hits (Freq > 0.002%) InA [1]: 1/13

QSSGILSR
Hits (Freq > 0.002%) R [8]: 1/12

RTTWSIHAK
Hits (Freq > 0.002%) IA [3]: 5/12 | Hits (Freq > 0.002%) IT [4]: 2/8 | Hits (Freq > 0.002%) InA [5]: 3/13 | Hits (Freq > 0.002%) R [2]: 3/12

STISSILSK
Hits (Freq > 0.002%) IA [12]: 1/12 | Hits (Freq > 0.002%) InA [1]: 1/13

TVPCFNPK
Hits (Freq > 0.002%) InA [1]: 1/13

LQAGFFLLTK
Hits (Freq > 0.002%) IA [12]: 1/12

VSLMLLYK
Hits (Freq > 0.002%) R [7]: 1/12

QTSERHGDK
Hits (Freq > 0.002%) R [8]: 1/12 | Hits (Freq > 0.002%) InA [1]: 1/13
